Assay results reported in ChEMBL document CHEMBL1201862, “PubChem BioAssay data set” (2004).
Active and inactive are the calls of the source.

Experiments:
[1] = SNU-C1 cell viability reduction, dose response, CellTiter-Glo luminescence (AID 1117323); type: functional, cell-based
[2] = HCT116 cell viability decrease, GSK3B pretreatment – CellTiter-Glo, IC50, dose response (AID 1117339); type: functional; conditions: HCT-116
[3] = cytotoxicity toward HCT116 cells – cell-based, CellTiter-Glo luminescence, IC50, dose response (AID 1117332); type: functional; conditions: HCT-116
[4] = RKO cell viability reduction, dose response, CellTiter-Glo luminescence (AID 1117322); type: functional
[5] = Concentration-dependent survival of SW480 colon cancer line, luminescence detection with CellTiter-Glo, half-maximal inhibitory concentration (AID 1117338); type: functional
[6] = CellTiter-Glo luminescent dose response of DLD-1 viability loss (AID 1117352); type: functional
[7] = cytotoxicity toward Colo320 cells – cell-based, CellTiter-Glo luminescence, IC50, dose response (AID 1117334); type: functional; conditions: COLO 320
[8] = cytotoxicity toward HT-29 cells – cell-based, CellTiter-Glo luminescence, IC50, dose response (AID 1117330); type: functional
[9] = target: Protein-tyrosine kinase 2-beta (Homo sapiens, UniProt Q14289);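 note: potency of inhibitors of PYK2 kinase phosphorylation of poly-GT substrate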
[10] = target: NAD-dependent protein deacylase sirtuin-5, mitochondrial (Homo sapiens, UniProt Q9NXA8); assay: SIRT5 desuccinylase inhibitors, dose response, biochemical, fluorescence imaging, cherry-pick, set 5 (AID 720591);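 note: desuccinylation of succinyl peptide AMC substrate read as fluorescence after trypsin release; potency of inhibitors that lower fluorescence and may act on trypsin instead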
[11] = cells
[12] = target: Major prion protein (Homo sapiens, UniProt P04156); type: functional, cell-based
[13] = target: T1, Bcl-2-related protein A1 (Mus musculus, UniProt Q07440); assay: Bfl-1 inhibitors blocking BH3 peptide binding, confirmation, biochemical, TR-FRET, mouse Bfl-1 (AID 621);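 note: TR-FRET binding of GST-Bfl-1 to FITC-labelled Bid peptide via terbium antibody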
T1 sequence (Q07440 whole entry): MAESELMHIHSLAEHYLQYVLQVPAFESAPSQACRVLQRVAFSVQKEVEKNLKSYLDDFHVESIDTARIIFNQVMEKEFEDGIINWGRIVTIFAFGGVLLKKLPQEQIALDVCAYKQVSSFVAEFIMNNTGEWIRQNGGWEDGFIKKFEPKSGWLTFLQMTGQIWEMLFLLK

[14] = target: Glyceraldehyde-3-phosphate dehydrogenase (Homo sapiens, UniProt P04406)
[15] = target: T1, Bcl-2-related protein A1; assay: Bfl-1 binding inhibitors, SAR follow-up, biochemical, fluorescence polarization (AID 1070)
[16] = target: Cytochrome P450 2C19 (Homo sapiens, UniProt P33261); assay: Cytochrome panel assay with activity outcomes. Panel member name: p450-cyp2c19 Compounds with AC50 equal or less than 10 uM are considered active; type: functional; conditions: read-out: AC50
[17] = inhibitors of intracellular T. cruzi replication, confirmation, NIH3T3 host cells, beta-gal luminescence (AID 2044); type: functional, cell-based;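 note: intracellular parasites grown in NIH/3T3 mouse fibroblasts as host cells; luminescent beta-galactosidase reporter signal from transgenic T. cruzi replicating inside host cells; inhibitors lower the luminescence signal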
[18] = Luminescent dose response cell-based high throughput screening assay for inhibitors of the Janus kinase 2 mutant JAK2V617F. [Related pubchem assays: 1446 (Primary screen.), 1521 (Confirmation assay.), 1486 (Counter screen.)]; type: functional
[19] = cytotoxicity toward NIH3T3 fibroblasts, dose response, counter-screen, cell-based, ATP luminescence, mouse fibroblasts (AID 2010); type: functional;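 note: cells exposed to compound for about 90 hours before reading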
[20] = target: T2, Cytochrome P450 1A2 (Homo sapiens, UniProt P05177);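 note: PubChem cytochrome P450 panel assay, CYP1A2 panel member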
T2 sequence (P05177 whole entry): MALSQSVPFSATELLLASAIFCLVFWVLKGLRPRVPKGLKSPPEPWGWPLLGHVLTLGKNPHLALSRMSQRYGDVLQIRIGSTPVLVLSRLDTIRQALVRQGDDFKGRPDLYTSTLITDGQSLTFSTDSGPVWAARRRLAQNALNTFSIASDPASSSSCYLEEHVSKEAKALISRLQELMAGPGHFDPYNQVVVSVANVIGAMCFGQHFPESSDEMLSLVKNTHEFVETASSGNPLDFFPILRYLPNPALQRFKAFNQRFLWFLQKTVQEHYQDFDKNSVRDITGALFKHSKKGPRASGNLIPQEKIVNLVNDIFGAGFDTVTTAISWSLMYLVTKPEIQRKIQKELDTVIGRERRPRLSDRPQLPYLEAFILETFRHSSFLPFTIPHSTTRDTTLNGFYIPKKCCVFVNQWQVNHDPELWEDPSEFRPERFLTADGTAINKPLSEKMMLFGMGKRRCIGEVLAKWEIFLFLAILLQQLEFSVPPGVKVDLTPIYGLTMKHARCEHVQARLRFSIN

[21] = cells; remark: listed apart in the source
[22] = inhibitors of SNCA 5'UTR-driven reporter translation, confirmation, H4 neuroglioma cells, luminescence (AID 1988); type: functional, cell-based
[23] = Luminescence Cell-Based Dose Response HTS to Identify Inhibitors of 5'UTR Stem-Loop Driven Prion Protein mRNA Translation in H4 Neuroglioblastoma Cells. [Related pubchem assays: 1827 (Project Summary), 1813 (Primary HTS)]; type: functional
[24] = inhibitors of firefly luciferase expression or activity, dose response, H4 neuroglioma cells, luminescence (AID 1990); type: functional, cell-based

For `CCN(CC)C(=O)c1cccnc1` [NIKETHAMIDE], the IC50 [1] was > 20 µM (inactive), the IC50 [2] was > 20 µM (inactive) and the IC50 [3] was > 20 µM (inactive). The IC50 [4] was > 20 µM (inactive), the IC50 [5] was > 20 µM (inactive) and the IC50 [6] was > 20 µM (inactive). The IC50 [7] was > 20 µM (inactive) and the IC50 [8] was > 20 µM (inactive).

With `CC(C)(C)C(=O)Nc1nc2c(s1)COc1ccccc1-2` the IC50 [9] was > 69.5 µM (not active).

For `Cc1ccc(SCc2cn3ccccc3n2)cc1`, the AC50 [10] was > 30 µM (inactive).

In the case of `Cc1cc(NC(=O)CSc2nc(C(C)C)nc3ccccc23)no1`, the IC50 [9] is reported as > 69.5 µM (not active), the IC50 [11] is reported as > 138 µM (inactive) and the IC50 [12] is reported as 0.936 µM (active).

With `COc1ccc(-n2nc(CCC(=O)N(C)O)cc2-c2ccc(Cl)cc2)cc1` [TEPOXALIN] the IC50 [1] was 1.75 µM (active), the IC50 [3] was 6.55 µM (inactive) and the IC50 [4] was 4.11 µM (active). For the same compound, the IC50 [5] was 2.81 µM (active), the IC50 [6] was 2.08 µM (active) and the IC50 [7] was 0.662 µM (active).

For `CCOC(=O)CS(=O)(=O)c1nc2c(c(C(F)(F)F)n1)CCc1ccccc1-2`, the IC50 [13] was > 100 µM (not active), the IC50 [14] was > 100 µM (not active) and the IC50 [15] was > 100 µM (not active).

With `COc1ccc(N2CCc3c(C)nc4c(OC)cc(OC)cc4c32)c(OC)c1` the AC50 [16] was 28.2 µM (inconclusive), the EC50 [17] was 0.839 µM (active) and the IC50 [18] was 1.87 µM (active). For the same compound, the EC50 [19] was > 60 µM (not active) and the AC50 [20] was 22.4 µM (inconclusive).

For `CC(C)c1ccc(-n2c(-c3ccccc3)c[n+]3c2CCc2ccccc2-3)cc1`, the EC50 [21] was 0.041 µM (active), the EC50 [22] was 11.7 µM (active) and the EC50 [17] was < 0.1 µM (active). For the same compound, the EC50 [23] was > 120 µM (not active), the EC50 [24] was 9.52 µM (active) and the EC50 [19] was > 60 µM (not active).
